Broadly, the IC50 is the concentration that inhibits the measured activity by half. As usually defined, the GI50 is the concentration giving 50% growth inhibition. As usually defined, the EC50 is the concentration giving half of the maximal effect.

Some results are limits rather than exact numbers.

For one assay, the system named is T47D cells. Nature of the assay: Clonogenic survival assay. The assay is classed as cell-based. Conditions: Homo sapiens, 48 h treatment, read-out: IC50 of inhibition of clonogenic survival. The procedure: (§1) T47D and MX-1 cells were grown according to the conditions recommended by American Type Culture Collection. In a well of a 96 well plate, 30,000 cells were seeded and treated with compound at the indicated concentrations for 48 hr in a 5% CO2-95% humidity incubator at 37° C. Control wells were treated with the same amount of solvent (DMSO) as the compound samples. After the indicated treatment time, the supernatant was removed to a sterile culture tube and the wells washed with phosphate buffered saline, and the adherent cells trypsinized for 5 min. The trypsinzed cells were added to the culture supernatant, cells were collected (1,200 rpm, 10 min), washed with phosphate buffered saline, and resupended in fresh media. The cells were counted for trypan blue negative cells, and the cells diluted with fresh media to 1,000 cells/ml. To a well of a 24-well plate, 0.1 ml of the cell suspension was added along with 1 ml of fresh media (cell suspensions were passed through a 22 G needle several times just before plating to form single cell suspensions). Plates are incubated in a 5% CO2-95% humidity incubator at 37° C. for 7-10 days. Colonies are counted when the sizes reached greater than 50 cells per colony. […] Colonies are rinsed with water and the colonies counted and the fraction surviving expressed as the percentage of the number of control colonies.

The next assay concerns MX-1 cells. As to the kind of experiment: Clonogenic survival assay. In kind it is cell-based. Conditions: Homo sapiens, MX1, 48 h treatment, read-out: IC50 of inhibition of clonogenic survival. The procedure: as §1
Assay [1] relates to T-47D. Nature of the assay: Cell proliferation assay (GI50). In kind it is cell-based, Human. To be noted: 48 h. The procedure: (§2) T-47D and ZR-75-1 cells were grown and harvested as in Example 43. An aliquot of 90 μl of cells (2.2×10^4 cells/ml) was added to a well of a 96-well microtiter plate containing 10 μl of a 10% DMSO in RPMI-1640 media solution containing 1 nM to 100 μM of N′-(2-phenoxypyridine-3-carbonyl)-3-(trifluoromethyl)benzhydrazide (0.1 nM to 10 μM final). An aliquot of 90 μl of cells was added to a well of a 96-well microtiter plate containing 10 μl of a 10% DMSO in RPMI-1640 media solution without compound as the control sample for maximal cell proliferation (AMax). The samples were mixed by agitation and then incubated at 37° C. for 48 h in a 5% CO2-95% humidity incubator. After incubation, the samples were removed from the incubator and 20 μl of CellTiter 96 AQUEOUS One Solution Cell Proliferation™ reagent (Promega) was added. The samples were mixed by agitation and incubated at 37° C. for 2-4 h in a 5% CO2-95% humidity incubator. Using an absorbance plate reader (Model 1420 Wallac Instruments), an initial reading (T=0) was made approximately 1-2 min after addition of the solution, employing absorbance at 490 nm. This determines the possible background absorbance of the test compounds. No absorbance for N′-(2-phenoxypyridine-3-carbonyl)-3-(trifluoromethyl)benzhydrazide was found at 490 nm. After the 2-4 h incubation, the samples were read for absorbance as above (ATest).
(§3) Baseline for GI50 (dose for 50% inhibition of cell proliferation) of initial cell numbers were determined by adding an aliquot of 90 μl of cells or 90 μl of media, respectively, to wells of a 96-well microtiter plate containing 10 μl of a 10% DMSO in RPMI-1640 media solution. The samples were mixed by agitation and then incubated at 37° C. for 0.5 h in a 5% CO2-95% humidity incubator. After incubation, the samples were removed from the incubator and 20 μl of CellTiter 96 AQUEOUS One Solution Cell Proliferation™ reagent (Promega) was added. The samples were mixed by agitation and incubated at 37° C. for 2-4 h in a 5% CO2-95% humidity incubator. Absorbance was read as above, (AStart) defining absorbance for initial cell number used as baseline in GI50 determinations.
(§4) GI50 (dose for 50% inhibition of cell proliferation) is the concentration where [(ATest−AStart)/(AMax−AStart)]=0.5
(§5) T-47D, ZR-75-l, MX-1, SK-Br-3, MCF-7, Panc-1, K562 and PC-3 cells were grown according to the conditions recommended by American Type Culture Collection. SW620 and NCI-H23 were grown according to the conditions provided by National Cancer Institute. The cell proliferation assay and the calculations of GI50 were performed as in Example 21 (Tables III and IV).

The test system of assay [2] is ZR-75-1. As to the kind of experiment: Caspase cascade activation assay (fluorogenic DEVD substrate). The assay is classed as cell-based, Human. To be noted: 48 h; for Caspase activity Ratio: ratio of net RFU of test compound to control. The procedure:
(§6) Human breast cancer cell lines T-47D and ZR-75-1 were grown according to media component mixtures designated by American Type Culture Collection+10% FCS (Invitrogen Corporation), in a 5% CO2-95% humidity incubator at 37° C. T-47D and ZR-75-1 cells were maintained at a cell density between 50 and 80% confluency at a cell density of 0.1 to 0.6×10^6 cells/ml. Cells were harvested at 600×g and resuspended at 0.65×10^6 cells/ml into appropriate media+10% FCS. An aliquot of […] of cells was added to a well of a 96-well microtiter plate containing 2.5 μl of a 10% DMSO in RPMI-1640 media solution containing 0.16 to 100 μM of N′-(2-phenoxypyridine-3-carbonyl)-3-(trifluoromethyl)benzhydrazide (Example 1) or other test compound (0.016 to 10 μM final). An aliquot of 22.5 μl of cells was added to a well of a 384-well microtiter plate containing 2.5 μl of a 10% DMSO in RPMI-1640 media solution without test compound as the control sample. The samples were mixed by agitation and then incubated at 37° C. for 48 h in a 5% CO2-95% humidity incubator. After incubation, the samples were removed from the incubator and 25 μl of a solution containing 14 μM of N-(Ac-DEVD)-N′-ethoxycarbonyl-R110 (SEQ ID No:1) fluorogenic substrate (Cytovia, Inc.; WO99/18856), 20% sucrose (Sigma), 20 mM DTT (Sigma), 200 mM NaCl (Sigma), 40 mM Na PIPES buffer pH 7.2 (Sigma), and 500 μg/ml lysolecithin (Calbiochem) was added. The samples were mixed by agitation and incubated at room temperature. Using a fluorescent plate reader (Model SpectraMax Gemini, Molecular Devices), an initial reading (T=0) was made approximately 1-2 min after addition of the substrate solution, employing excitation at 485 nm and emission at 530 nm, to determine the background fluorescence of the control sample. After the 3 h incubation, the samples were read for fluorescence as above (T=3 h).
(§7) The Relative Fluorescence Unit values (RFU) were used to calculate the sample readings as follows:
(§8) RFU(T=3 h)−Control RFU(T=0)=Net RFU(T=3 h)
(§9) The activity of caspase cascade activation was determined by the ratio of the net RFU value for N′-(2-phenoxypyridine-3-carbonyl)-3-(trifluoromethyl)benzhydrazide (Example 1) or other test compound to that of control samples. The EC50 (nM) was determined by a sigmoidal dose-response calculation (Prism 2.0, GraphPad Software Inc.).

Assay [3] concerns T-47D. The assay is described as above. The assay is classed as cell-based, Human. Conditions: 48 h; for Caspase activity Ratio: ratio of net RFU of test compound to control; for EC50: Homo sapiens, T47D, read-out: Caspase potency EC50. The method, then:
as §6, §7, §8, §9

A further assay concerns K562. Nature of the assay: Cell proliferation assay (GI50). To be noted: Homo sapiens. The assay is classed as cell-based. The method, then: as §2, §3, §4, §5
The subject of another assay is SW-620. Nature of the assay: Cell proliferation assay (GI50). In kind it is cell-based. Conditions: Homo sapiens. The method, then:
as §2, §3, §4, §5

A further assay concerns NCI-H23. Nature of the assay: Cell proliferation assay (GI50). In kind it is cell-based. Conditions: Homo sapiens. The procedure:
as §2, §3, §4, §5

Assay [4] deals with ZR-75-1. As to the kind of experiment: Cell proliferation assay (GI50). Conditions: Homo sapiens, 48 h. In kind it is cell-based. The procedure: as §2, §3, §4, §5
In a further assay the test system is SK-Br-3. As to the kind of experiment: Cell proliferation assay (GI50). To be noted: Homo sapiens. In kind it is cell-based. The procedure:
as §2, §3, §4, §5

The subject of a further assay is MCF-7. Nature of the assay: Cell proliferation assay (GI50). In kind it is cell-based. Conditions: Homo sapiens, MCF7. The method, then:
as §2, §3, §4, §5

The next assay has as its system Panc-1. As to the kind of experiment: Cell proliferation assay (GI50). In kind it is cell-based. Conditions: Homo sapiens. The method, then: as §2, §3, §4, §5
Another assay relates to PC-3. Nature of the assay: Cell proliferation assay (GI50). In kind it is cell-based. To be noted: Homo sapiens. The method, then: as §2, §3, §4, §5
The next assay concerns MX-1. As to the kind of experiment: Cell proliferation assay (GI50). The assay is classed as cell-based. To be noted: Homo sapiens, MX1. The method, then:
as §2, §3, §4, §5

For assay [5], the system named is breast and non-breast cancer cells. As to the kind of experiment: Cell proliferation assay, breast versus non-breast cancer cell lines. Conditions: conclusion from Tables III and IV. The assay is classed as cell-based. The procedure: as §2
as §3, with “Absorbance was read as above, (AStart) defining absorbance for initial cell number used as baseline in GI50 determinations.” left out

The test system of the next assay is T-47D cells. Nature of the assay: Cell cycle arrest by propidium iodide flow cytometry. In kind it is cell-based, Human. Conditions: 1 μM, 24 h. The method, then: T-47D, a breast cancer cell line, was maintained and harvested as described in Example 43. 5×10^5 Cells were treated with 1 μM of N′-(2-phenoxypyridine-3-carbonyl)-3-(trifluoromethyl)benzhydrazide for 24 h at 37° C. As a control, cells were also incubated with equivalent amount of solvent (DMSO). Cells were harvested at 1,200 rpm and then transferred to 12×75 mm polystyrene tubes. Cells were then resuspended in 500 μl of 1% Na Citrate, 0.1% Triton X-100, and 50 μg/ml of propidium iodide and incubated at room temperature for 30 min followed by flow cytometer analysis. All flow cytometry analyses were performed on FACScalibur (Becton Dickinson) using Cell Quest analysis software. The x-axis plotted the amount of fluorescence and the y-axis is plotted the number of cells with the indicated fluorescence. The T-47D control cell population profile is seen in FIG. 1A and the increase in G2/M (M4) DNA content cells that were treated with N′-(2-phenoxypyridine-3-carbonyl)-3-(trifluoromethyl)benzhydrazide is seen in FIG. 1B.
In general terms: In flow cytometry, cells or beads pass a laser one at a time.

For the compound `O=C(NNC(=O)c1cccnc1Oc1ccccc1)c1cccc(C(F)(F)F)c1` [Example 1, N′-(2-Phenoxypyridine-3-carbonyl)-3-(trifluoromethyl)benzhydrazide], the 50% inhibitory concentration (IC50) was approximately 1050 nM in the assay with T47D cells and approximately 600 nM in the assay on MX-1 cells. Also, the 50% growth inhibitory concentration (GI50) is 200 nM with T-47D [1] (Homo sapiens, T47D); more than 10000 nM in the assay on K562; more than 10000 nM in the assay with SW-620; more than 10000 nM with NCI-H23; 4500 nM in the assay on ZR-75-1 [4]; 40 nM with SK-Br-3. The GI50 with MCF-7 was 400 nM; with Panc-1 it was more than 10000 nM; in the assay with PC-3 it was more than 10000 nM; in the assay with MX-1, 400 nM. Also, the “Caspase potency EC50” value with ZR-75-1 [2] is given as “INACTIVE”. For the same compound, the “Caspase activity Ratio” value was 1.8 in the assay with ZR-75-1 [2] and 11.6 with T-47D [3]. Further, the concentration for a half-maximal effect (EC50) with T-47D [3] is 464 nM. Further, the “Selectivity of growth inhibition for breast cancer cells” value (from here on “Selectivity of growth inhibition”) in assay [5] is on record as “selectively inhibits the growth of breast cancer cells”. In addition, the “G2/M (M4) DNA content cells” value in the assay with T-47D cells is given as “increase”.
On to `O=C(NNC(=O)c1cccnc1Oc1ccccc1)c1ccccc1O` [Example 8, N′-(2-Phenoxypyridine-3-carbonyl)-2-hydroxybenzhydrazide], for which the 50% growth inhibitory concentration (GI50) worked out at 600 nM in the assay with T-47D [1]; 1000 nM with T-47D [1] (Homo sapiens, T47D); 450 nM in the assay with K562; 1000 nM in the assay with SW-620; 1000 nM in the assay with NCI-H23; 300 nM in the assay on ZR-75-1 [4]. Besides, the 50% growth inhibitory concentration (GI50) in the assay on SK-Br-3 was 300 nM; in the assay on MCF-7 it was 800 nM; in the assay with MX-1 it was 1000 nM. The “Caspase activity Ratio” value is 5.6 in the assay on ZR-75-1 [2] and 7.3 in the assay on T-47D [3]. Further, the half-maximal effective concentration (EC50) with ZR-75-1 [2] (Homo sapiens, read-out: Caspase potency EC50) was 728 nM; in the assay with T-47D [3], 744 nM. Moreover, the “Selectivity of growth inhibition” value in assay [5] is “inhibiting the growth of both breast and non-breast cancer cells”.
As to `O=C(NN=Cc1cccc(C(F)(F)F)c1)c1cccnc1Oc1ccccc1` [Example 15, 2-Phenoxypyridine-3-carboxylic acid (3-trifluoromethylbenzylidene)-hydrazide], the concentration for 50% growth inhibition (GI50) in the assay with T-47D [1] is 80 nM; with T-47D [1] (Homo sapiens, T47D), 60 nM; with SW-620, more than 10000 nM; with NCI-H23, more than 10000 nM; with ZR-75-1 [4], 2000 nM; in the assay with SK-Br-3, 20 nM. Further, the GI50 in the assay with MCF-7 came to 250 nM; in the assay on MX-1, 400 nM. Also, the “Selectivity of growth inhibition” value in [5] was “selectively inhibits the growth of breast cancer cells”.

The values above are taken from patent publication US6716859B2, “Substituted N′-(Arylcarbonyl)-benzhydrazides, N′(Arylcarbonyl)-benzylidene-hydrazides and analogs as activators of caspases and inducers of apoptosis and the use thereof” (Cytovia, Inc., priority 2001, dated 2004).
